Measurements taken from US12673946B2, “Pyrimidin-4(3H)-one derivatives as TRPV4 antagonists” (RaQualia Pharma Inc., priority 2020, dated 2026).
pIC50: −log10 of the molar value.

Biological target: T1, human TRPV4 (Homo sapiens, UniProt Q9HBA0)
T1 construct: host or cells: tetracycline-inducible Flp-In T-REx 293 cells
Test: Hypotonicity-induced Ca2+ influx (Fluo-4, FDSS)
Format: cell-based
Summary of the method: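 Flp-In T-REx 293 cells with tetracycline-induced human TRPV4, loaded with Fluo-4 for 60 min at 25 °C. Compound added 5 min before hypotonic mannitol/CaCl2 solution. Ca2+ signal recorded for 4.5 min on FDSS.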

[1] = Flp-In T-REx 293 cells expressing human TRPV4, examples listed under heading 'Human IC50<50 nM'
[2] = Flp-In T-REx 293 cells stably expressing human TRPV4, compounds listed by potency bin (<10 nM Tables 96-1/96-2, <3 nM Table 97)

T1 sequence (Q9HBA0 whole entry): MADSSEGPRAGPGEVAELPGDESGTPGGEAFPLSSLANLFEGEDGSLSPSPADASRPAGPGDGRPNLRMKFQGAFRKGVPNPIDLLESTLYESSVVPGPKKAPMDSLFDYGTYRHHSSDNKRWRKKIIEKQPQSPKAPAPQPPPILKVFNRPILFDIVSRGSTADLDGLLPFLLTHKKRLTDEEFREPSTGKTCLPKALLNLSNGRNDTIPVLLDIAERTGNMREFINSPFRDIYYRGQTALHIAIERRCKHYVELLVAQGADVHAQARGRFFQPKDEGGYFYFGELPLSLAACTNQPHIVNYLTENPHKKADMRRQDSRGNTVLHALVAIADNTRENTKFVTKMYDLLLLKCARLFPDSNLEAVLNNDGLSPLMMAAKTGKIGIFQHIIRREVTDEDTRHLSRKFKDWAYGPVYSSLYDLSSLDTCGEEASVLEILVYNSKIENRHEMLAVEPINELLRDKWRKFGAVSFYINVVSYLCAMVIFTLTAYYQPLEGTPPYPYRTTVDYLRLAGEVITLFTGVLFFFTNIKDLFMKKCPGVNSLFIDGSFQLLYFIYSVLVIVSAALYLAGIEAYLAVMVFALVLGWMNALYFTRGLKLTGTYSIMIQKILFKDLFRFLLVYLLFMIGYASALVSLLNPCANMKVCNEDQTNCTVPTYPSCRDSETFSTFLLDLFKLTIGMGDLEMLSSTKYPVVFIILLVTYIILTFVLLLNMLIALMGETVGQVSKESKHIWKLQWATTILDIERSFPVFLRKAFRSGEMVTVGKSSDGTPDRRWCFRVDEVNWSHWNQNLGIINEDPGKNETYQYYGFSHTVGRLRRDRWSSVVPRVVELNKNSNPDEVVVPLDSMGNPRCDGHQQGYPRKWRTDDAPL

pIC50 [1] | pIC50 [2] | Structure (SMILES)
> 7.30 | > 8.00 | O=C([C@H](O)c1cccc(-c2cc(Cl)cc(OC(F)(F)F)c2)c1)N1CCCc2nc(C3(c4cccc(Cl)c4)CC3)[nH]c(=O)c2C1 [50-16]
> 7.30 | > 8.52 | O=C(c1cccc(-c2cccc(C3(c4nc5c(c(=O)[nH]4)CN(C(=O)[C@H](O)c4cccc(C(F)(F)F)c4)CCC5)CC3)c2)c1)N1CCCCC1 [42-9]
> 7.30 | > 8.00 | CN(Cc1cccc2ccccc12)C(=O)c1csc(C2(c3nc4c(c(=O)[nH]3)CN(C(=O)[C@H](O)c3cccc(C(F)(F)F)c3)CCC4)CC2)c1 [59-10]
> 7.30 | > 8.00 | CC(C)(C)c1cccc(CC(=O)N2CCCc3nc(C4(c5cccc(Cl)c5)CC4)[nH]c(=O)c3C2)c1 [17-141]
> 7.30 | > 8.00 | O=C([C@H](O)c1cccc(C(F)(F)F)c1)N1CCCc2nc(C3(c4cccc(-c5cc6ccccc6s5)c4)CC3)[nH]c(=O)c2C1 [42-29]
> 7.30 | > 8.00 | O=C([C@H](O)c1cccc(-c2ccc(OCc3ccccc3)cc2)c1)N1CCc2nc(C3(c4ccccc4)CC3)[nH]c(=O)c2C1 [44-107]
> 7.30 | > 8.52 | O=C([C@H](O)c1cccc(C(F)(F)F)c1)N1CCCc2nc(C3(c4cccc(C5=CCN(C(=O)C6(c7cccc(C(F)(F)F)c7)CC6)CC5)c4)CC3)[nH]c(=O)c2C1 [42-83]
> 7.30 | > 8.52 | O=C(C(O)c1cccc(-c2cccc(F)c2)c1)N1CCCc2nc(C3(c4cccc(Cl)c4)CC3)[nH]c(=O)c2C1 (centres unmarked) [17-5]
> 7.30 | > 8.00 | O=C([C@H](O)c1cccc(-c2coc3ccccc23)c1)N1CCc2nc(C3(c4ccccc4)CC3)[nH]c(=O)c2C1 [44-112]
> 7.30 | > 8.52 | O=C([C@H](O)c1cccc(C(F)(F)F)c1)N1CCCc2nc(C3(c4cccc(C5CCCC5)c4)CC3)[nH]c(=O)c2C1 [31-5]
> 7.30 | > 8.00 | CN1CCc2cc(-c3cccc(C4(c5nc6c(c(=O)[nH]5)CN(C(=O)[C@H](O)c5cccc(C(F)(F)F)c5)CCC6)CC4)c3)ccc21 [42-50]
> 7.30 | > 8.00 | O=C(Cc1ccccc1OCc1ccccc1)N1CCCc2nc(C3(c4cccc(Cl)c4)CC3)[nH]c(=O)c2C1 [17-82]
> 7.30 | > 8.52 | O=C([C@H](O)c1cccc(C(F)(F)F)c1)N1CCCc2nc(C3(c4cccc(-c5cnc(-c6ccccc6)s5)c4)CC3)[nH]c(=O)c2C1 [17-98]
> 7.30 | > 8.52 | O=C([C@H](O)c1cccc(-c2cc(F)cc(Cl)c2)c1)N1CCCc2nc(C3(c4cccc(Cl)c4)CC3)[nH]c(=O)c2C1 [50-18]
> 7.30 | > 8.00 | O=C(C(O)c1cccc(SC(F)(F)F)c1)N1CCCc2nc(C3(c4cccs4)CC3)[nH]c(=O)c2C1 (centres unmarked) [18-6]
> 7.30 | – | Cc1ccc(-c2cccc(C(O)C(=O)N3CCc4nc(C5(c6ccccc6)CC5)[nH]c(=O)c4C3)c2)cc1Cl (centres unmarked) [44-26]
> 7.30 | – | O=C(Cc1cccc(-c2cccc(Cl)c2)c1)N1CCc2nc(C3(c4cccc(Cl)c4)CC3)[nH]c(=O)c2C1 [14-114]
> 7.30 | > 8.52 | O=C([C@H](O)c1cccc(-c2cccc(Cl)c2)c1)N1CCCc2nc(C3(c4cccc(C5CCCCC5)c4)CC3)[nH]c(=O)c2C1 [52-3]
> 7.30 | – | CC(C)(C)c1cccc(CC(=O)N2CCCc3nc(C4(c5ccccc5)CC4)[nH]c(=O)c3C2)c1 [17-142]
> 7.30 | > 8.00 | O=C([C@H](O)c1cccc(-c2cccc(C(F)(F)F)c2)c1)N1CCCc2nc(C3(c4cc(-c5ccccc5)cs4)CC3)[nH]c(=O)c2C1 [54-14]
> 7.30 | > 8.00 | O=C([C@H](O)c1cccc(C(F)(F)F)c1)N1CCCc2nc(C3(c4cc(CCC5CCOCC5)cs4)CC3)[nH]c(=O)c2C1 [30-6]
> 7.30 | > 8.00 | CC(C)(C)c1cccc(-c2cccc(C(O)C(=O)N3CCCc4nc(C5(c6ccccc6)CC5)[nH]c(=O)c4C3)c2)c1 (centres unmarked) [49-10]
> 7.30 | > 8.00 | O=C(C(O)c1cccc(-c2cccc(OC(F)(F)F)c2)c1)N1CCCc2nc(C3(c4cccc(Cl)c4)CC3)[nH]c(=O)c2C1 (centres unmarked) [17-23]
> 7.30 | > 8.00 | O=C([C@H](O)c1cccc(C(F)(F)F)c1)N1CCc2nc(C3(c4cc(-c5ccccc5)cs4)CC3)[nH]c(=O)c2C1 [36-1]
> 7.30 | > 8.52 | COc1cc(-c2cccc(C3(c4nc5c(c(=O)[nH]4)CN(C(=O)[C@H](O)c4cccc(Cl)c4)CCC5)CC3)c2)ccn1 [40-14]
> 7.30 | > 8.00 | N#Cc1cncc(-c2cccc(C3(c4nc5c(c(=O)[nH]4)CN(C(=O)[C@H](O)c4cccc(C(F)(F)F)c4)CCC5)CC3)c2)c1 [42-19]
> 7.30 | > 8.00 | CC(C)c1cccc(C2(c3nc4c(c(=O)[nH]3)CN(C(=O)[C@H](O)c3cccc(-c5cccc(F)c5)c3)CCC4)CC2)c1 [51-8]

pIC50 [1] | pIC50 [2] | Structure (SMILES)
> 7.30 | > 8.00 | O=C(Cc1cccc(-c2ccc(C(F)(F)F)cc2)c1)N1CCCc2nc(C3(c4ccccc4)CC3)[nH]c(=O)c2C1 [17-133]
> 7.30 | > 8.00 | CC(C)(C)c1ccc(-c2cccc(CC(=O)N3CCCc4nc(C5(c6cccc(Cl)c6)CC5)[nH]c(=O)c4C3)c2)cc1 [17-127]
> 7.30 | > 8.00 | O=C(C(O)c1cccc(-c2cccc(OC(F)(F)F)c2)c1)N1CCc2nc(C3(c4ccccc4)CC3)[nH]c(=O)c2C1 (centres unmarked) [44-1, 6-(2-hydroxy-2-(3′-(trifluoromethoxy)-[1,1′-biphenyl]-3-yl)acetyl)-2-(1-phenylcyclopropyl)-5,6,7,8-tetrahydropyrido[4,3-d]pyrimidin-4(3H)-one]
> 7.30 | > 8.00 | O=C([C@H](O)c1cccc(-c2cccc(Cl)c2)c1)N1CCCc2nc(C3(c4cncc(C5CCCCC5)c4)CC3)[nH]c(=O)c2C1 [55-13]
> 7.30 | > 8.00 | O=C([C@H](O)c1cccc(Cl)c1)N1CCc2nc(C3(c4cc(C5CCCC5)cs4)CC3)[nH]c(=O)c2C1 [23-2]
> 7.30 | > 8.00 | O=C(C(O)c1cccc(-c2ccnc(C(F)(F)F)c2)c1)N1CCCc2nc(C3(c4ccccc4)CC3)[nH]c(=O)c2C1 (centres unmarked) [49-5]
> 7.30 | > 8.00 | O=C(C(O)c1cccc(Cl)c1F)N1CCCc2nc(C3(c4cccc(Oc5ccccc5)c4)CC3)[nH]c(=O)c2C1 (centres unmarked) [17-81]
> 7.30 | > 8.00 | O=C([C@H](O)c1cccc(Cl)c1)N1CCc2nc(C3(c4cc(C5CCCCC5)cs4)CC3)[nH]c(=O)c2C1 [15-7]
> 7.30 | > 8.00 | O=C(C(O)c1cccc(Oc2cccc(C(F)(F)F)c2)c1)N1CCCc2nc(C3(c4cccc(Cl)c4)CC3)[nH]c(=O)c2C1 (centres unmarked) [17-40]
> 7.30 | > 8.00 | O=C(C(O)c1cccc(-c2cccc(F)c2)c1)N1CCc2nc(C3(c4cccc(Cl)c4)CC3)[nH]c(=O)c2C1 (centres unmarked) [14-12]
> 7.30 | > 8.00 | O=C(C(O)c1cccc(-c2ccc(Cl)cc2)c1)N1CCCc2nc(C3(c4ccccc4)CC3)[nH]c(=O)c2C1 (centres unmarked) [49-3]
> 7.30 | > 8.00 | O=C([C@H](O)c1cccc(Cl)c1)N1CCc2nc(C3(c4cccc(Oc5ccccc5)c4)CC3)[nH]c(=O)c2C1 [14-4]
> 7.30 | > 8.00 | CC(C)(C)c1cccc(-c2cccc([C@@H](O)C(=O)N3CCCc4nc(C5(c6cccc(-c7csc8ccccc78)c6)CC5)[nH]c(=O)c4C3)c2)c1 [52-12]
> 7.30 | – | O=C(C(O)c1cccc(-c2cc(F)ccc2Cl)c1)N1CCc2nc(C3(c4ccccc4)CC3)[nH]c(=O)c2C1 (centres unmarked) [44-28]
> 7.30 | > 8.00 | O=C(Cc1cccc(-c2cccc(C(F)(F)F)c2)c1)N1CCc2nc(C3(c4cccc(Cl)c4)CC3)[nH]c(=O)c2C1 [14-122]
> 7.30 | > 8.00 | CC(C(=O)N1CCCc2nc(C3(c4cccc(F)c4)CC3)[nH]c(=O)c2C1)c1cccc(C(F)(F)F)c1 (centres unmarked) [17-89]
> 7.30 | > 8.00 | O=C([C@H](O)c1cccc(-c2cc(Cl)ccc2Cl)c1)N1CCCc2nc(C3(c4ccccc4)CC3)[nH]c(=O)c2C1 [49-43]
> 7.30 | – | CC(C)(O)CCc1csc(C2(c3nc4c(c(=O)[nH]3)CN(C(=O)[C@H](O)c3cccc(C(F)(F)F)c3)CCC4)CC2)c1 [30-12]
> 7.30 | > 8.52 | O=C([C@H](O)c1cccc(C(F)(F)F)c1)N1CCCc2nc(C3(c4cccc(C5=CCN(C(=O)[C@H]6CC[C@H](C(F)(F)F)CC6)CC5)c4)CC3)[nH]c(=O)c2C1 [42-77]
> 7.30 | > 8.00 | O=C(C(O)c1cccc(-c2cccc(OC(F)(F)F)c2)c1)N1CCCc2nc(C3(c4ccccc4)CC3)[nH]c(=O)c2C1 (centres unmarked) [49-7]
> 7.30 | > 8.52 | O=C([C@H](O)c1cccc(C(F)(F)F)c1)N1CCc2nc(C3(c4cncc(-c5ccccc5)c4)CC3)[nH]c(=O)c2C1 [38-1]
> 7.30 | > 8.00 | O=C([C@H](O)c1cccc(-c2cc(F)cc(Cl)c2)c1)N1CCc2nc(C3(c4ccccc4)CC3)[nH]c(=O)c2C1 [44-77]
> 7.30 | > 8.52 | CN(Cc1ccc(-c2cccc(C3(c4nc5c(c(=O)[nH]4)CN(C(=O)[C@H](O)c4cccc(C(F)(F)F)c4)CCC5)CC3)c2)cc1)C(=O)NC1CCCCC1 [42-93]
> 7.30 | > 8.52 | O=C([C@H](O)c1cccc(C(F)(F)F)c1)N1CCCc2nc(C3(c4cc(-c5ccccc5)cs4)CC3)[nH]c(=O)c2C1 [41-1]
> 7.30 | > 8.00 | O=C([C@H](O)c1cccc(-c2cccc(C(F)(F)F)c2)c1)N1CCCc2nc(C3(c4cncc(-c5ccccc5)c4)CC3)[nH]c(=O)c2C1 [56-5]
> 7.30 | > 8.00 | Cc1cc(Cl)cc(-c2cccc([C@@H](O)C(=O)N3CCCc4nc(C5(c6ccccc6)CC5)[nH]c(=O)c4C3)c2)c1 [49-29]
